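Where inhibition never reached the appropriate level, the endpoint shown equals the highest concentration tested. Otherwise, values were interpolated linearly from a five-concentration, 48-hour dose response in 96-well plates. At the GI50, growth is halved.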 The source made the active and inactive calls. No stated cut-off is given here; in the data, active = GI50 up to about 1.1 µM and inactive = higher.
What was measured:
Experiment in all cases: growth of human tumour cells (NCI), 48 h
OVCAR-4 = system: OVCAR-4
EKVX = system: EKVX
OVCAR-8 = system: OVCAR-8
CCRF-CEM = system: CCRF-CEM
786-0 = system: 786-0
RXF 631 = system: RXF 631
UACC-257 = system: UACC-257
ACHN = system: ACHN
HOP-92 = system: HOP-92
M19-MEL = system: M19-MEL
UACC-62 = system: UACC-62
LOX IMVI = system: LOX IMVI
MOLT-4 = system: MOLT-4
SK-MEL-2 = system: SK-MEL-2
SF-539 = system: SF-539
RXF 393 = system: RXF 393
LXFL 529 = system: LXFL 529
HL-60 = system: HL-60
NCI-H23 = system: NCI-H23
U-251 = system: U-251
CAKI-1 = system: CAKI-1
OVCAR-3 = system: OVCAR-3
SF-295 = system: SF-295
NCI-H522 = system: NCI-H522
KM-20L2 = system: KM-20L2
SW-620 = system: SW-620
HOP-62 = system: HOP-62
K562 = system: K562
UO-31 = system: UO-31
SNB-19 = system: SNB-19
SNB-75 = system: SNB-75
SN12C = system: SN12C
M14 = system: M14
COLO 205 = system: COLO 205
HOP-18 = system: HOP-18
DMS-114 = system: DMS-114
DLD-1 = system: DLD-1
HCT-15 = system: HCT-15
TK-10 = system: TK-10
OVCAR-5 = system: OVCAR-5
SK-MEL-28 = system: SK-MEL-28
Malme-3M = system: Malme-3M
IGROV-1 = system: IGROV-1
HT-29 = system: HT-29
RPMI-8226 = system: RPMI-8226
SF-268 = system: SF-268
SK-MEL-5 = system: SK-MEL-5
NCI-H460 = system: NCI-H460
SK-OV-3 = system: SK-OV-3
HCC 2998 = system: HCC 2998
DMS-273 = system: DMS-273
A549 = system: A549
KM12 = system: KM12
SR = system: SR
NCI-H226 = system: NCI-H226
SNB-78 = system: SNB-78
A498 = system: A498
HCT-116 = system: HCT-116
XF498 = system: XF498

## CC1=CC(O)(c2ccc(-c3ccccc3Cl)cc2)OC1=O (stereo not given)
OVCAR-4
  GI50: > 100 µM (inactive)
EKVX
  GI50: > 100 µM (inactive)
OVCAR-8
  GI50: > 100 µM (inactive)
CCRF-CEM
  GI50: > 100 µM (inactive)
786-0
  GI50: > 100 µM (inactive)
RXF 631
  GI50: > 100 µM (inactive)
UACC-257
  GI50: > 100 µM (inactive)
ACHN
  GI50: > 100 µM (inactive)
HOP-92
  GI50: > 100 µM (inactive)
M19-MEL
  GI50: > 100 µM (inactive)
UACC-62
  GI50: > 100 µM (inactive)
LOX IMVI
  GI50: > 100 µM (inactive)
MOLT-4
  GI50: > 100 µM (inactive)
SK-MEL-2
  GI50: > 100 µM (inactive)
SF-539
  GI50: > 100 µM (inactive)
RXF 393
  GI50: > 100 µM (inactive)
LXFL 529
  GI50: > 100 µM (inactive)
HL-60
  GI50: > 100 µM (inactive)
NCI-H23
  GI50: > 100 µM (inactive)
U-251
  GI50: > 100 µM (inactive)
CAKI-1
  GI50: > 100 µM (inactive)
OVCAR-3
  GI50: > 100 µM (inactive)
SF-295
  GI50: > 100 µM (inactive)
NCI-H522
  GI50: > 100 µM (inactive)
KM-20L2
  GI50: > 100 µM (inactive)
SW-620
  GI50: > 100 µM (inactive)
HOP-62
  GI50: > 100 µM (inactive)
K562
  GI50: > 100 µM (inactive)
UO-31
  GI50: > 100 µM (inactive)
SNB-19
  GI50: > 100 µM (inactive)
SNB-75
  GI50: 43.1 µM (inactive)
SN12C
  GI50: > 100 µM (inactive)
M14
  GI50: > 100 µM (inactive)
COLO 205
  GI50: > 100 µM (inactive)
HOP-18
  GI50: > 100 µM (inactive)
DMS-114
  GI50: > 100 µM (inactive)
DLD-1
  GI50: > 100 µM (inactive)
HCT-15
  GI50: > 100 µM
TK-10
  GI50: > 100 µM (inactive)
OVCAR-5
  GI50: > 100 µM (inactive)
SK-MEL-28
  GI50: > 100 µM (inactive)
Malme-3M
  GI50: > 100 µM (inactive)
IGROV-1
  GI50: > 100 µM (inactive)
HT-29
  GI50: > 100 µM (inactive)
RPMI-8226
  GI50: > 100 µM (inactive)
SF-268
  GI50: > 100 µM (inactive)
SK-MEL-5
  GI50: > 100 µM (inactive)
NCI-H460
  GI50: > 100 µM (inactive)
SK-OV-3
  GI50: > 100 µM (inactive)
HCC 2998
  GI50: > 100 µM (inactive)
DMS-273
  GI50: > 100 µM (inactive)
A549
  GI50: > 100 µM (inactive)
KM12
  GI50: > 100 µM (inactive)

## CCCCCCC(O)C/C=C/CCCCCC/C(C(=O)OC)=C(/O)C(=O)OCC (stereo not given)
OVCAR-4
  GI50: > 100 µM (inactive)
EKVX
  GI50: > 100 µM (inactive)
OVCAR-8
  GI50: > 100 µM (inactive)
CCRF-CEM
  GI50: > 100 µM (inactive)
786-0
  GI50: > 100 µM (inactive)
RXF 631
  GI50: > 100 µM (inactive)
UACC-257
  GI50: > 100 µM (inactive)
SR
  GI50: 7.93 µM (inactive)
ACHN
  GI50: > 100 µM (inactive)
HOP-92
  GI50: > 100 µM (inactive)
M19-MEL
  GI50: > 100 µM (inactive)
NCI-H226
  GI50: > 100 µM (inactive)
UACC-62
  GI50: > 100 µM (inactive)
LOX IMVI
  GI50: > 100 µM (inactive)
MOLT-4
  GI50: 72.8 µM (inactive)
SK-MEL-2
  GI50: > 100 µM (inactive)
SF-539
  GI50: > 100 µM (inactive)
LXFL 529
  GI50: > 100 µM (inactive)
HL-60
  GI50: 67.1 µM (inactive)
NCI-H23
  GI50: > 100 µM (inactive)
SNB-78
  GI50: > 100 µM (inactive)
U-251
  GI50: > 100 µM (inactive)
CAKI-1
  GI50: > 100 µM (inactive)
OVCAR-3
  GI50: > 100 µM (inactive)
SF-295
  GI50: > 100 µM (inactive)
NCI-H522
  GI50: 85.1 µM (inactive)
SW-620
  GI50: > 100 µM (inactive)
HOP-62
  GI50: > 100 µM (inactive)
K562
  GI50: 97.7 µM (inactive)
UO-31
  GI50: > 100 µM (inactive)
SNB-19
  GI50: > 100 µM (inactive)
SNB-75
  GI50: > 100 µM (inactive)
SN12C
  GI50: > 100 µM (inactive)
M14
  GI50: > 100 µM (inactive)
COLO 205
  GI50: > 100 µM (inactive)
HOP-18
  GI50: > 100 µM (inactive)
DMS-114
  GI50: > 100 µM (inactive)
DLD-1
  GI50: > 100 µM (inactive)
HCT-15
  GI50: > 100 µM
TK-10
  GI50: > 100 µM (inactive)
OVCAR-5
  GI50: > 100 µM (inactive)
SK-MEL-28
  GI50: > 100 µM (inactive)
Malme-3M
  GI50: > 100 µM (inactive)
IGROV-1
  GI50: > 100 µM (inactive)
HT-29
  GI50: > 100 µM (inactive)
A498
  GI50: > 100 µM (inactive)
RPMI-8226
  GI50: > 100 µM (inactive)
SF-268
  GI50: > 100 µM (inactive)
HCT-116
  GI50: > 100 µM (inactive)
SK-MEL-5
  GI50: > 100 µM (inactive)
NCI-H460
  GI50: > 100 µM (inactive)
SK-OV-3
  GI50: > 100 µM (inactive)
XF498
  GI50: > 100 µM (inactive)
HCC 2998
  GI50: > 100 µM (inactive)
DMS-273
  GI50: > 100 µM (inactive)
A549
  GI50: > 100 µM (inactive)
KM12
  GI50: > 100 µM (inactive)

From ChEMBL document CHEMBL1201862, “PubChem BioAssay data set” (2004)
